14 compounds from patent US10245264B2, “Substituted imidazo[1,2-a]pyrazines as soluble guanylate cyclase activators” (Merck Sharp & Dohme Corp., priority 2015, dated 2019) can be followed below.

For experiment [1], the system named is systolic blood pressure in spontaneously hypertensive rats. As to the kind of experiment: Acute efficacy in spontaneously hypertensive rats (SHR), telemetry blood pressure. It counts as in vivo, rat. An excerpt: Acute Efficacy in Spontaneously Hypertensive Rats (SHR)
Spontaneously hypertensive rats (SHR, male, Charles River) were implanted with DSI TA11 PA-C40 telemetry device (Data Sciences, Inc., St. Paul, Minn.) under isoflurane or ketamine/metomidine anesthesia. The telemetry unit catheter was inserted into the descending aorta via the femoral artery and the telemetry device was implanted subcutaneously in the left flank area. Animals were allowed to recover from surgery for 14 days before the start of any studies. Blood pressure, heart rate, and activity signals from conscious, freely moving rats were recorded continuously for 30 seconds every 10 minutes. On the day prior to administration of compound, a single oral dose of vehicle (10% transcutol/20% Cremophor/70% water) was administered to all animals to establish baseline control data. The blood pressure lowering efficacy of compound (PO) or vehicle was evaluated following a single oral gavage. Data were collected as hourly averages, and changes in blood pressure were calculated by subtracting control baseline data on an hourly basis. Animals were maintained on normal diet with a 12 hour light-dark cycle.
Maximum peak decreases of systolic blood pressure (SBP) in SHR at a particular P.O. dose (mpk milligrams per kilogram) for the following representative compounds are provided below in Table 6.
Category A=SBP in SHRs <20 mmHg; Category B=SBP in SHRs 20-40 mmHg;
Category C=SBP in SHRs >40 mmHg

The target of experiment [2] is T1, sGC α1/β1 heterodimer stably expressed in CHO-K1 cells (CHO-K1/sGC) (Homo sapiens, UniProt Q02108+Q02153).
T1 construct: expressed in transfected cells
T1 sequence (Q02108 1-690): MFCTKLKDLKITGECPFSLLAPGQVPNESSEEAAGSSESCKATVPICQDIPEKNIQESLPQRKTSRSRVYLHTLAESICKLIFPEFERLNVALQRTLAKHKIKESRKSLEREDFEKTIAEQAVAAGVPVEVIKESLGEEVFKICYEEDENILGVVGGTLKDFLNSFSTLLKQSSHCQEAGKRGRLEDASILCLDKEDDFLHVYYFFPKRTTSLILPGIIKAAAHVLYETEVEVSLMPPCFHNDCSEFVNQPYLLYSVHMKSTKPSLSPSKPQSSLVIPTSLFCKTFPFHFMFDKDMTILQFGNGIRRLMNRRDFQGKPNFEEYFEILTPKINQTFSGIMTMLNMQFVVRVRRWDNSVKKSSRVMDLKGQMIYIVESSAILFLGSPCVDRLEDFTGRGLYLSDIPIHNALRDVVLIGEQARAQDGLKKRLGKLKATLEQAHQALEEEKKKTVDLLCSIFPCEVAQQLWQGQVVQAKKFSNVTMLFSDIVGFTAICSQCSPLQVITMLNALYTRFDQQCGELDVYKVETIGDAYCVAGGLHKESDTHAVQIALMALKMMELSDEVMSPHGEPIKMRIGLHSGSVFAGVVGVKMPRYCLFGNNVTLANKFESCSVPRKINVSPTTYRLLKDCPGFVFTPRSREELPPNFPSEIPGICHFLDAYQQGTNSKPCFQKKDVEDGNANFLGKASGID
T1 sequence (Q02153 1-619): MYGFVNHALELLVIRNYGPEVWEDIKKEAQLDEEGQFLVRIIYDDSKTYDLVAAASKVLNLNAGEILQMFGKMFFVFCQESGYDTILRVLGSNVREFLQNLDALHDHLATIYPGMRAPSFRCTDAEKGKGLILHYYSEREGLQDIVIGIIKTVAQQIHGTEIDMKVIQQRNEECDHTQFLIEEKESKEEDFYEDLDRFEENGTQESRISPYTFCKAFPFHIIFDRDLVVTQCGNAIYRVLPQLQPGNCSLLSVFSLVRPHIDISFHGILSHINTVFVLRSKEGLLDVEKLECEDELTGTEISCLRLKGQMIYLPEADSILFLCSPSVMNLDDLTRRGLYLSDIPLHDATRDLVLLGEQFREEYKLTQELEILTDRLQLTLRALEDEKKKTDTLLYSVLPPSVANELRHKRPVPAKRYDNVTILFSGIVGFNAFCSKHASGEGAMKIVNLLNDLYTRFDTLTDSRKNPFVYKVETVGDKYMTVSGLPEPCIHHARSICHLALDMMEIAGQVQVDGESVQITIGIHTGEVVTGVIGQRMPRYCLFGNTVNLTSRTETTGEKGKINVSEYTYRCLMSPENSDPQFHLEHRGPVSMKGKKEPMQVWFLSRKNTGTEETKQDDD
The experiment is described as follows: Cell-based sGC functional assay (CASA assay), cGMP generation by HTRF. Particulars: for Emax: CHO-K1, maximum cGMP production of Compound A set to 100% activation, read-out: % Act. (percent activation relative to Compound A); for EC50: CHO-K1/sGC cells, 1 hr at 37° C., 4P fit, presence or absence of DETA-NO not given, read-out: IP (nM) (inflection point). In short, it runs like this:
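CHO-K1/sGC cells (4×10^5/mL) in EBSS with 5 mM MgCl2, 10 mM HEPES, 0.05% BSA and 0.5 mM IBMX, treated 1 hr at 37° C with compounds (2.5% DMSO) with or without 1 μM DETA-NO. cGMP measured by HTRF, expressed as % of a reference heme-dependent activator's maximum; inflection point and fold induction from 4P fit.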
(In general: In TR-FRET formats the signal depends on donor and acceptor labels being close together.)

Turning to `CC1(c2ccc(F)cc2)C(=O)Nc2nc(-c3cn4ccnc4c(Oc4cccc(F)c4)n3)nc(N)c21` (centres unmarked) [Example 1A, 4-Amino-2-[8-(3-fluorophenoxy)imidazo[1,2-a]pyrazin-6-yl]-5-(4-fluorophenyl)-5-methyl-5,7-dihydro-6H-pyrrolo[2,3-d]pyrimidin-6-one], the “Maximum peak decrease of systolic blood pressure (SBP), Category” value (from here on “Maximum peak decrease”) in experiment [1] (single oral dose 0.3 mpk P.O.) was “B (Category B=SBP in SHRs 20-40 mmHg)”. Moreover, in experiment [2], the Emax stood at 110% and the EC50 was determined as 17 nM.
For `CC1(c2ccc(F)cc2)C(=O)Nc2nc(-c3cn4ccnc4c(OCC(F)(F)C(F)(F)F)n3)nc(N)c21` (centres unmarked) [Example 2A, 4-amino-5-(4-fluorophenyl)-5-methyl-2-[8-(2,2,3,3,3-pentafluoropropoxy)imidazo[1,2-a]pyrazin-6-yl]-5,7-dihydro-6H-pyrrolo[2,3-d]pyrimidin-6-one], the “Maximum peak decrease” value in experiment [1] (single oral dose 3.0 mpk P.O.) is recorded as “B (Category B=SBP in SHRs 20-40 mmHg)”. Besides, in experiment [2], the Emax was 127% and the EC50 is 317 nM.
With `CC1(c2ccc(F)cc2)C(=O)Nc2nc(-c3cn4ccnc4c(Oc4ccccc4F)n3)nc(N)c21` (centres unmarked) [Example 4A, 4-amino-2-[8-(2-fluorophenoxy)imidazo[1,2-a]pyrazin-6-yl]-5-(4-fluorophenyl)-5-methyl-5,7-dihydro-6H-pyrrolo[2,3-d] pyrimidin-6-one], in experiment [1] (single oral dose 1.0 mpk P.O.), the “Maximum peak decrease” value is on record as “C (Category C=SBP in SHRs >40 mmHg)”. Moreover, in experiment [2], the Emax stood at 100% and the EC50 was determined as 62 nM.
In the case of `CC1(c2ccccc2)C(=O)Nc2nc(-c3cn4ccnc4c(Oc4ccccc4)n3)nc(N)c21` (centres unmarked) [Example 10B, 4-amino-5-methyl-2-(8-phenoxy-imidazo[1,2-a]pyrazin-6-yl)-5-phenyl-5,7-dihydro-6H-pyrrolo[2,3-d] pyrimidin-6-one], in experiment [1] (single oral dose 0.3 mpk P.O.), the “Maximum peak decrease” value is “B (Category B=SBP in SHRs 20-40 mmHg)”. For the same compound, in experiment [2], the Emax was 127% and the EC50 came to 45 nM.
As for `CC1(c2ccc(Cl)cc2)C(=O)Nc2nc(-c3cn4ccnc4c(Oc4cccnc4)n3)nc(N)c21` (centres unmarked) [Example 30A, 4-amino-5-(4-chlorophenyl)-5-methyl-2-[8-(pyridin-3-yloxy)imidazo[1,2-a]pyrazin-6-yl]-5,7-dihydro-6H-pyrrolo[2,3-d] pyrimidin-6-one], the “Maximum peak decrease” value in experiment [1] (single oral dose 1.0 mpk P.O.) is recorded as “B (Category B=SBP in SHRs 20-40 mmHg)”. In experiment [2], the Emax came to 168% and the EC50 stood at 171 nM.
The corresponding values for `CC1(c2ccc(Cl)cc2)C(=O)Nc2nc(-c3cn4ccnc4c(OCC4CC(F)(F)C4)n3)nc(N)c21` (centres unmarked) [Example 32A, 4-amino-5-(4-chlorophenyl)-2-{8-[(3,3-difluoro-cyclobutyl)methoxy]imidazo [1,2-a]pyrazin-6-yl}-5-methyl-5,7-dihydro-6H-pyrrolo[2,3-d] pyrimidin-6-one] are “B (Category B=SBP in SHRs 20-40 mmHg)”, 129% and 157 nM.
As for `CC1(c2ccc(F)cc2)C(=O)Nc2nc(-c3cn4ccnc4c(NCC(F)(F)C(F)(F)F)n3)nc(N)c21` (centres unmarked) [Example 34A, 4-amino-5-(4-fluorophenyl)-5-methyl-2-{8-[(2,2,3,3,3-pentafluoropropyl)amino]imidazo [1,2-a]pyrazin-6-yl}-5,7-dihydro-6H-pyrrolo[2,3-d] pyrimidin-6-one], the “Maximum peak decrease” value in experiment [1] (single oral dose 3.0 mpk P.O.) is reported as “A (Category A=SBP in SHRs <20 mmHg)”. Further, in experiment [2], the Emax was 117% and the EC50 is 164 nM.
As to `CC1(c2ccc(Cl)cc2)C(=O)Nc2nc(-c3cn4ccnc4c(NCC4CC(F)(F)C4)n3)nc(N)c21` (centres unmarked) [Example 58A, 4-amino-5-(4-chlorophenyl)-2-(8-{[(3,3-difluorocyclo-butyl)methyl]amino}imidazo [1,2-a]pyrazin-6-yl)-5-methyl-5,7-dihydro-6H-pyrrolo[2,3-d] pyrimidin-6-one], in experiment [2], the Emax is 109% and the EC50 was 163 nM.
Take `CC1(c2ccc(Cl)cc2)C(=O)Nc2nc(-c3cn4ccnc4c(NCC4CCOCC4)n3)nc(N)c21` (centres unmarked) [Example 59A, 4-amino-5-(4-chlorophenyl)-5-methyl-2-{8-[(tetrahydro-2H-pyran-4-ylmethyl)amino]imidazo [1,2-a]pyrazin-6-yl}-5,7-dihydro-6H-pyrrolo[2,3-d] pyrimidin-6-one]: in experiment [2], the Emax stood at 167% and the EC50 was 701 nM.
The corresponding values for `CC1(c2ccc(Cl)cc2)C(=O)Nc2nc(-c3cn4ccnc4c(NCc4ccccc4)n3)nc(N)c21` (centres unmarked) [Example 60A, 4-amino-2-[8-(benzylamino)imidazo[1,2-a]pyrazin-6-yl]-5-(4-chloro-phenyl)-5-methyl-5,7-dihydro-6H-pyrrolo[2,3-d] pyrimidin-6-one] are 72% and 7 nM.
For the compound `CC(C)CSc1nc(-c2nc(N)c3c(n2)NC(=O)C3(C)c2ccc(F)cc2)cn2ccnc12` (centres unmarked) [Example 63A, 4-amino-5-(4-fluorophenyl)-5-methyl-2-{8-[(2-methylpropyl)sulfanyl]imidazo [1,2-a]pyrazin-6-yl}-5,7-dihydro-6H-pyrrolo[2,3-d] pyrimidin-6-one], in experiment [2], the Emax worked out at 93% and the EC50 amounted to 10 nM.
The matching figures for `CC1(c2ccc(F)cc2)C(=O)Nc2nc(-c3cn4ccnc4c(SCCC(F)(F)F)n3)nc(N)c21` (centres unmarked) [Example 64A, 4-amino-5-(4-fluorophenyl)-5-methyl-2-{8-[(3,3,3-trifluoro-propyl)sulfanyl]imidazo[1,2-a]pyrazin-6-yl}-5,7-dihydro-6H-pyrrolo[2,3-d] pyrimidin-6-one]: 67% and 73 nM.
Consider `CC(Nc1nc(-c2nc(N)c3c(n2)NC(=O)C3(C)c2ccc(Cl)cc2)cn2ccnc12)c1ccccc1` (centres unmarked) [Example 73, 4-amino-5-(4-chlorophenyl)-5-methyl-2-{8-[(1-phenylethyl)amino]imidazo [1,2-a]pyrazin-6-yl}-5,7-dihydro-6H-pyrrolo[2,3-d] pyrimidin-6-one], for which, in experiment [2], the Emax was determined as 81% and the EC50 came to 336 nM.
Regarding `CC(Nc1nc(-c2nc(N)c3c(n2)NC(=O)C3(C)c2ccc(Cl)cc2)cn2ccnc12)c1ccccc1` (centres unmarked) [Example 74, 4-amino-5-(4-chlorophenyl)-5-methyl-2-{8-[(1-phenylethyl)amino]imidazo [1,2-a]pyrazin-6-yl}-5,7-dihydro-6H-pyrrolo[2,3-d] pyrimidin-6-one], in experiment [2], the EC50 worked out at 231 nM. Moreover, the “% Act. (percent activation relative to Compound A)” value in experiment [2] (maximum cGMP production of Compound A set to 100% activation) was 87%.
